Assay results as given in patent US11612599B2, “Glycosidase inhibitors” (Asceneuron SA, priority 2016, dated 2023).

These molecules were tested against Human O-GlcNAcase (His-Tagged hOGA) (Homo sapiens (Human), UniProt O60502) (assay: Human O-GlcNAcase enzyme inhibition assay). Conditions: OGA enzyme inhibition assay; activity range classes defined in μM.
Type: biochemical
Method: Then, 20 nM of His-Tagged hOGA and 10 μM of FL-GlcNAc (Fluorescein mono-beta-D-(2-deoxy-2-N-acetyl) glucopyranoside; Marker Gene Technologies Inc, M1485) were added to the 384-well plate for a final volume of 20 μl.

Human O-GlcNAcase (His-Tagged hOGA), sequence (O60502 whole entry): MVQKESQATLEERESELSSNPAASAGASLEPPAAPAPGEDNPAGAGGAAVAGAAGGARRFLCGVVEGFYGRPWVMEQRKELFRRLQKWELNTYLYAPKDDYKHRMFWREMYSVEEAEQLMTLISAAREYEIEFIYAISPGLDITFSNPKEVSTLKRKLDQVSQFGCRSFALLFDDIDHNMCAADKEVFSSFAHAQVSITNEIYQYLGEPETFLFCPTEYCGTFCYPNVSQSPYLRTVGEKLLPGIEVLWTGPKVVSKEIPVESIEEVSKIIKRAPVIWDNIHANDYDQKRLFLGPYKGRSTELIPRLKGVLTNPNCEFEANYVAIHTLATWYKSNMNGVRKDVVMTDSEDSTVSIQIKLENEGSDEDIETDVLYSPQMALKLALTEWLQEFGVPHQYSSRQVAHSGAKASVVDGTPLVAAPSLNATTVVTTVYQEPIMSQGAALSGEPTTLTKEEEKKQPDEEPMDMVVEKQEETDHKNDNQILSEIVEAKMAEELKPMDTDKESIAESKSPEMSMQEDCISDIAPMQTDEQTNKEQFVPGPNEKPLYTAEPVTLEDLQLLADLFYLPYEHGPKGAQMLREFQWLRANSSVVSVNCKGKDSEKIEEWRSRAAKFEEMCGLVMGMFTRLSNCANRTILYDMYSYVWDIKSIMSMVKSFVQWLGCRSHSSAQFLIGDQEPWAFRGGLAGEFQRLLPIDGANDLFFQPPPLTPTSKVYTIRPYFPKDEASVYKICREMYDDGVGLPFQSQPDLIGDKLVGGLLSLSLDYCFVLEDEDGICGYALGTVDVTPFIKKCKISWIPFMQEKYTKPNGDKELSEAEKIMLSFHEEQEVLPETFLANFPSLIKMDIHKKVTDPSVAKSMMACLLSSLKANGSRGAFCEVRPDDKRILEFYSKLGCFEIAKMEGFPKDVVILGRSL

SMILES | IC50
Cc1ncc2ccc(N3CCN(C(C)c4ccc5c(c4)OCC5)CC3)cn12 (racemic) [Example 1, 6-(4-(1-(2,3-dihydrobenzofuran-6-yl)ethyl)piperazin-1-yl)-3-methylimidazo[1,5-a]pyridine] | < 0.05 µM
CC(c1ccc2c(c1)OCC2)N1CCN(c2ccc3c(c2)C(=O)NC3)CC1 (racemic) [Example 2, 6-(4-(1-(2,3-dihydrobenzofuran-6-yl)ethyl)piperazin-1-yl)isoindolin-1-one] | < 0.05 µM
C[C@H](c1ccc2c(c1)OCC2)N1CCN(c2nc3c(s2)CNCC3)CC1 (single isomer, unassigned) [Example 18] | 1 to 10 µM

Other lines, results leading:

IC50 | SMILES
< 0.05 µM | CC(c1ccc2c(c1)OCC2)N1CCN(c2cc3c(cn2)NC(=O)CO3)CC1 (racemic) [Example 3, 7-(4-(1-(2,3-dihydrobenzofuran-6-yl)ethyl)piperazin-1-yl)-2H-pyrido[4,3-b][1,4]oxazin-3(4H)-one]
0.05 to 0.2 µM | CC(c1ccc2nccnc2c1)N1CCN(c2ccc3c(c2)C(=O)NC3)CC1 (racemic) [Example 4, 6-(4-(1-(quinoxalin-6-yl)ethyl)piperazin-1-yl)isoindolin-1-one]
< 0.05 µM | CC(c1ccc2c(c1)OCC2)N1CCN(c2nc3c(s2)C(=O)NCC3)CC1 (racemic) [Example 12, 2-(4-(1-(2,3-dihydrobenzofuran-6-yl)ethyl)piperazin-1-yl)-6,7-dihydrothiazolo[5,4-c]pyridin-4(5H)-one]
